In PubChem BioAssay AID850 (SRMLSC, 2007):
Activity calls are given as the source filed them. How the calls were made is not given here.

Legend:
[1] = concentration-response yeast growth inhibition under permissive conditions, counter-assay for yeast lifespan-shortening chemical project (AID 850); conditions: Saccharomyces cerevisiae growth inhibition, permissive control, measured here: maximum growth inhibition, stronger effect = higher value;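 further: growth read as optical density after one day of incubation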
[2] = test system: Saccharomyces cerevisiae growth inhibition, permissive control; assay: as above

SMILES	IC50 [2]	inhibition ([1]; at 50 µM)	further results
O=c1c2ccccc2nc2c3ccccc3c3nncn3n12	> 100 µM (inactive)	–	inhibition ([1]; at 6.25 µM): 5.16%
Oc1c(Br)cc(Cl)cc1C=Nc1ccccc1Br	7.27 µM	100%	–
Cc1cccc(C(=O)O/N=C/c2c(N3CCOCC3)n(C)c3ccccc23)c1	50.1 µM	48.1%	–
O=C(C1=C(O)/C(=C/c2ccc(O)cc2)CCC1)C(F)(F)F	> 100 µM (inactive)	–	inhibition ([1]; at 0.195 µM): 7.72%
O=c1oc2ccccc2cc1-c1cn2cccnc2n1	> 100 µM (inactive)	–	inhibition ([1]; at 12.5 µM): 13.2%
CC(=O)N1CCN(c2ccc(OC[C@H]3CO[C@](Cn4ccnc4)(c4ccc(Cl)cc4Cl)O3)cc2)CC1	4.25 µM	96%	–
Cc1cc(C)cc(NS(=O)(=O)c2cnc(Cl)c(Cl)c2)c1	> 100 µM (inactive)	–	inhibition ([1]; at 12.5 µM): 19.5%
Oc1c(CN2CCN(c3ccccn3)CC2)cc(Cl)c2cccnc12	26.5 µM	95.9%	–
CCCCCCOC(=O)Sc1nc2ccccc2o1	11.7 µM	99%	–
Cc1cc(C)cc(N=Cc2ccc([N+](=O)[O-])s2)c1	12.3 µM	100%	–
Cc1[nH]n(-c2ccccc2)c(=O)c1/C=N/Nc1nncc(-c2ccccc2)n1	20.7 µM	98.7%	–
CC1=NNC(=O)/C1=C\c1cn(-c2ccccc2)nc1-c1cccs1	8.18 µM	98%	–
c1ccc2c(c1)C(=Nn1cnnc1)c1ccccc1-2	> 100 µM (inactive)	–	inhibition ([1]; at 0.391 µM): 7.85%
O=C(Oc1csc(=S)n1C(=O)c1ccccc1)c1ccccc1	> 100 µM (inactive)	–	inhibition ([1]; at 12.5 µM): 11.4%
O=[N+]([O-])c1cc(CN2CCCC2)c2cccnc2c1O	> 100 µM (inactive)	21%	–
Cc1ccc2c(c1)-c1nc3ccccc3cc1C2=NC1CCCCC1	> 100 µM (inactive)	16.8%	–
N#C/C(=C/c1cn(-c2ccccc2)nc1-c1cccc(OCc2ccc(F)cc2)c1)C(=O)NCCCn1ccnc1	> 100 µM (inactive)	–	inhibition ([1]; at 0.391 µM): 4.5%
Cc1ccccc1OCCCN1C(=O)C(=O)c2cccc(C)c21	> 100 µM (inactive)	–	inhibition ([1]; at 25 µM): 24.9%
Cc1ccc(NC(=S)Nc2ccc(Cl)c(Cl)c2)c(OC(F)F)c1	24.8 µM	76%	–
Cc1ccc(-c2cc(-c3ccccc3C)[nH]n2)c(O)c1	22.2 µM	89.4%	–
COc1ccc2c(c1)S/C(=C\C(=O)c1ccncc1)N2C	6.24 µM	92.6%	–

SMILES	IC50 [2]	inhibition ([1]; at 50 µM)	further results
Oc1ccc(/C=N/N=C(c2ccccc2)c2ccccc2)c(O)c1O	30.1 µM	79.8%	–
CNc1nnc(-c2cc3cc(Cl)ccc3oc2=O)s1	> 100 µM (inactive)	–	inhibition ([1]; at 25 µM): 12.5%
O=C1C2C3C=CC(CO)(O3)C2C(=O)N1c1ccccc1-c1ccccc1 (stereo unspecified)	> 100 µM (inactive)	–	inhibition ([1]; at 6.25 µM): 19.9%
Cc1oc(-c2ccc3c(c2)OCCO3)cc1C(=O)O	47.8 µM	–	inhibition ([1]; at 25 µM): 48.3%
Cc1ccc(-c2nn(C(C)(C)C)c3ncnc(N)c23)cc1	0.458 µM	84.2%	–
Oc1cccc2ccc(/C=C/c3cccs3)nc12	37.4 µM	67.1%	–
O=C1C(=O)c2c(C(=O)c3ccccc3)coc2-c2ccccc21	10.3 µM	99.6%	–
O=C(O)c1ccc2nc(-c3ccccc3)sc2c1	> 100 µM (inactive)	–	inhibition ([1]; at 0.781 µM): 28.2%
C=CCn1cnc2c(c1=O)c1nc3ccccc3nc1n2/N=C/c1cc(OC)c(OC)c(OC)c1	25.8 µM	–	inhibition ([1]; at 25 µM): 46.7%
CCOC(=O)c1cnc(-n2nc(C)cc2C)nc1NC1CCCCC1	42.8 µM	57.5%	–
COc1ccccc1OCC(=O)n1cc(C(=O)c2cc(Cl)cc(Cl)c2O)cn1	4.72 µM	100%	–
COCC(C)OC(=O)/C(C#N)=C\c1coc2ccc(C)cc2c1=O (stereo unspecified)	> 100 µM (inactive)	16.6%	–
CC(=O)n1cc(C(C[N+](=O)[O-])SCCN)c2ccccc21 (stereo unspecified)	13.9 µM	100%	–
CCSc1ncc(/C=N/Nc2ccc(Cl)cc2)n1C	6.82 µM	94.7%	–
O/N=C/c1cc(Cl)ccc1OCc1cccc2ccccc12	> 100 µM (inactive)	–	inhibition ([1]; at 0.391 µM): 11.2%
Cc1cccc(C(=O)Oc2csc(=S)n2C(=O)c2cccc(C)c2)c1	47.8 µM	55.6%	–
Cc1ccc2[nH]c3c(c2c1)CCc1cn[nH]c1-3	14.7 µM	98.6%	–
N/C(Cc1ccc(Cl)cc1Cl)=N\OC(=O)c1cccs1	0.925 µM	–	inhibition ([1]; at 12.5 µM): 100%
Cc1ccc(N2NC(C)(c3cccs3)NC2=S)cc1 (stereo unspecified)	12.1 µM	–	inhibition ([1]; at 25 µM): 94.1%
CCCCCCCCCCCCCCCC[n+]1ccc(C(N)=O)cc1	0.545 µM	–	inhibition ([1]; at 25 µM): 100%
Cn1c(=O)c(C(=O)Nc2ncccn2)c(O)c2ccccc21	49.9 µM	56.6%	–

SMILES	IC50 [2]	inhibition ([1]; at 50 µM)	further results
Cc1cccc(CSc2cccc3cccnc23)c1	13.8 µM	99.4%	–
S=C(NCc1ccc(Cl)cc1)NC12CC3CC(CC(C3)C1)C2	> 100 µM (inactive)	–	inhibition ([1]; at 0.195 µM): 14.1%
CCC(=O)c1c(O)n(C2CCCCCC2)c(=O)[nH]c1=O	29 µM	91%	–
N#C/C(=N/O)c1nc(-c2ccc(F)cc2)cs1	15.9 µM	78.8%	–
O=C(N/N=C\c1cccc([N+](=O)[O-])c1O)C1COc2ccccc2O1 (stereo unspecified)	22 µM	74.8%	–
O=C(Nc1nnc(-c2ccc(F)cc2)o1)c1cc(Cl)sc1Cl	36.8 µM	81.8%	–
CCOc1cc(N2CCOCC2)c(OCC)cc1NC(=O)COc1cccc2cccnc12	> 100 µM (inactive)	–	inhibition ([1]; at 0.098 µM): 11.3%
O=c1oc2ccccc2c(O)c1/C=C1\C=Nc2ccccc21	5.05 µM	93.2%	–
Oc1ccc(N=Nc2cccc(Cl)c2)cc1C=Nc1ccc(N2CCOCC2)cc1	> 100 µM (inactive)	–	inhibition ([1]; at 12.5 µM): 2.01%
O=S(=O)(Cc1ccccc1)NCc1cccnc1	> 100 µM (inactive)	–	inhibition ([1]; at 12.5 µM): 28.2%
Cn1c(C(C#N)C(=O)c2ccco2)nc2ccccc21 (stereo unspecified)	> 100 µM (inactive)	17.5%	–
CN1C(=O)C2(N=c3ccccc3=N2)c2ccccc21	> 100 µM (inactive)	21.4%	–
CN1CCc2cc3c(c4c2[C@H]1[C@H](O)c1ccccc1-4)OCO3	> 100 µM (inactive)	11.1%	–
C=CCN1C(C(=O)c2ccccc2)=C(OC(=O)COc2ccccc2)c2ccccc2S1(=O)=O	43.1 µM	65.8%	–
CSC1=NSC2=NC(=O)/C(=C\c3coc4ccccc4c3=O)C(=N)N12	> 100 µM (inactive)	19.2%	–
CN1CCN(C2=Cc3ccc(Cl)cc3Sc3ccc(F)cc32)CC1	27.2 µM	99.8%	–
C/C(=N\Nc1ccc(Cl)c(Cl)c1)c1ccc(-n2ccnc2)cc1	26.7 µM	96.7%	–
Cc1cc(C)nc(/N=c2/ssnc2Cl)c1	> 100 µM (inactive)	–	inhibition ([1]; at 6.25 µM): 29.2%
Cc1cc(C(=O)COC(=O)c2ccc[nH]c2=O)c(C)n1-c1ccc(Br)cc1	> 100 µM (inactive)	4.13%	–
O=C(Oc1c(Cl)cc(Cl)c2cccnc12)c1cccs1	12.7 µM	–	inhibition [1]: 100%
Cc1cc(C)c2c(N=NN3CCOCC3)[nH]nc2n1	> 100 µM (inactive)	5.41%	–
